# How the values were obtained:
# [1] = test system: ES cells or the iPS cells; assay: qPCR of marker gene expression in cells differentiated with added inhibitors; assay type: cell-based, human; conditions: 10 nM C59, spheres, qPCR
# From the text: Human ES cells (KhES-1) were obtained from Institute for Frontier Medical Sciences, Kyoto University (Suemori H, et al. Biochem Biophys Res Commun. 345: 926-32, 2006). The human iPS cells 404C2 are cells obtained by introducing Oct3/4, Sox2, Klf4, L-MYC, LIN28 and p53shRNA into human fibroblasts, using an episomal vector, and these cells were obtained from Professor Yamanaka et al. in Kyoto University (Okita, et al, Nat Methods. 8: 409-412, 2011). The human iPS cells 836B1 are cells obtained by introducing Oct3/4, Sox2, Klf4, L-MYC, LIN28, GLIS1 and p53shRNA into human fibroblasts, using an episomal vector, and these cells were obtained from Professor Yamanaka et al. in Kyoto University. The ES cells and the iPS cells were cultured on SNL cells (Takahashi K, et al, Cell. 131: 861-872, 2007).
# On the day before induction of differentiation, in order to separate the ES cells or the iPS cells, which had been cultured in a culture medium to which 10 μM Y-27632 (WAKO) had been added, from the SNL feeder cells, the SNL cells were removed with CTK and the remaining cells were then dissociated using Accumax (ICT). The cells were transferred on a 96-well plate (Lipidure-coat 96-well plate (NOF Corporation)) in an amount of 9×10^3 cells per well. Thereafter, the cells were subjected to a suspension culture in DMEM/F12 (WAKO) comprising 50 μM Y-27632 (WAKO), 10 μM SB43152 (Sigma), 10 ng/ml bFGF (Invitrogen), various types of Wnt inhibitors (DKK1 (R & D, 500 ng/ml), C59 (Cellagen Technology, 2-10 nM), XAV (Stemgent, 500 nM-2 μM) or IWP4 (Stemgent, 500 nM-2.5 μM)), LDN193189 (Stemgent), KSR (Invitrogen), 0.1 mM MEM non-essential amino acid (Invitrogen), 0.1 mM 2-mercaptoethanol (WAKO), and 2 mM L-Gln (Invitrogen) (initiation of differentiation induction, day 0). […] Three days later, the medium was exchanged with DMEM/F12 (WAKO) comprising various types of Wnt inhibitors (DKK1, C59, XAV or IWP4 (Stemgent)), LDN193189 (Stemgent), KSR (Invitrogen), 0.1 mM MEM non-essential amino acid (Invitrogen), 0.1 mM 2-mercaptoethanol (WAKO), and 2 mM L-Gln (Invitrogen) (day 6). Thereafter, the medium was exchanged with a fresh one of the same type every 3 days, and the culture was carried out for 18 days after the initiation of differentiation induction (day 18).
# The obtained cell mass was transferred on a dish (24-well plate (BD)) coated with 50 μg/ml ornithine (Sigma), 5 μg/ml laminin (Sigma) and 5 μg/ml fibronectin (BD Bioscience Pharmingen), and the culture was continued in Neurobasal (Invitrogen), to which B27 (Invitrogen), 2 mM L-Gln, and 10 units/ml penicillin and streptomycin (Invitrogen) had been added. The culture was carried out for, at maximum, 46 days after the initiation of differentiation induction. It is to be noted that the medium was exchanged with a fresh one every 2 or 3 days.
# In the above-described induction method, 500 ng/ml DKK1, 2 nM C59, 500 nM XAV or 500 nM IWP4 was added as a Wnt inhibitor to the cells, and the obtained mixture was then cultured for 18 days. Thereafter, the expression levels of Six3 (forebrain marker), Sox1 (neuroectodermal marker), Foxg1 (cerebral cortex-forming factor), Lhx2 (cerebral cortex-forming factor), Emx2 (forebrain back portion marker), CoupTF1 (forebrain back portion marker) and Pax6 (forebrain front portion marker) genes in the cultured cells were measured by a qPCR method (FIG. 2).
# The concentration of C59 used as a Wnt inhibitor in the above-described induction method was examined. Specifically, without using C59, or using 2.5 nM, 10 nM and 1 μM C59, the cells were cultured for 18 days. […] The obtained spheres were subjected to immunostaining of using an antibody against Pax6. […] Furthermore, the expression levels of the Foxg1, Lhx2, Emx2 and CoupTF1 genes in the obtained spheres were measured according to a qPCR method (FIG. 4B). As a result, the expression level of CoupTF1 was low and the expression levels of Lhx2 and Foxg1 were high in the case of using 10 nM C59. […]
# ES cells (Kh-1) = assay: Adhesion of spheres to OFL coat dish; assay type: cell-based, human; conditions: 10 nM C59, ES cells (Kh-1)
# From the text: Human ES cells (KhES-1) were obtained from Institute for Frontier Medical Sciences, Kyoto University (Suemori H, et al. Biochem Biophys Res Commun. 345: 926-32, 2006). The human iPS cells 404C2 are cells obtained by introducing Oct3/4, Sox2, Klf4, L-MYC, LIN28 and p53shRNA into human fibroblasts, using an episomal vector, and these cells were obtained from Professor Yamanaka et al. in Kyoto University (Okita, et al, Nat Methods. 8: 409-412, 2011). The human iPS cells 836B1 are cells obtained by introducing Oct3/4, Sox2, Klf4, L-MYC, LIN28, GLIS1 and p53shRNA into human fibroblasts, using an episomal vector, and these cells were obtained from Professor Yamanaka et al. in Kyoto University. The ES cells and the iPS cells were cultured on SNL cells (Takahashi K, et al, Cell. 131: 861-872, 2007). The obtained cell mass was transferred on a dish (24-well plate (BD)) coated with 50 μg/ml ornithine (Sigma), 5 μg/ml laminin (Sigma) and 5 μg/ml fibronectin (BD Bioscience Pharmingen), and the culture was continued in Neurobasal (Invitrogen), to which B27 (Invitrogen), 2 mM L-Gln, and 10 units/ml penicillin and streptomycin (Invitrogen) had been added. […] Furthermore, the expression levels of the Foxg1, Lhx2, Emx2 and CoupTF1 genes in the obtained spheres were measured according to a qPCR method (FIG. 4B). […]
compound,measurement,setting,value
Cc1cc(-c2ccc(CC(=O)Nc3ccc(-c4cccnc4)cc3)cc2)ccn1 [C59],expression level of CoupTF1,[1],low
same,expression level of Foxg1,[1],high
same,expression level of Lhx2,[1],high
same,adhesion of spheres to an OFL coat dish,ES cells (Kh-1),did not adhere so much
